Results from paper PMC8449129, “Single tracer-based protocol for broad-spectrum kinase profiling in live cells with NanoBRET” (STAR Protocols, 2021).

Assays:
Assay in all cases: cell-based
Set-up in all cases: NanoBRET live-cell target engagement; % occupancy from displacement of tracer K10 on NanoLuc-kinase fusions, mean n=3
Details in all cases: HEK293, read-out: % inhibition
[1] = target: FYN (Homo sapiens, UniProt P06241)
Summary of the method: (§1)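 Live-cell NanoBRET target engagement: cells expressing kinase–NanoLuc fusion with tracer treated with compound 2 h at 37 °C, 5% CO2. BRET read from donor (450 nm) and acceptor (610/630 nm) emission with 20 μM extracellular NanoLuc inhibitor; % occupancy calculated relative to tracer+DMSO and zero-BRET controls.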

[2] = target: CDK14 (Homo sapiens, UniProt O94921)
Summary of the method: as §1

[3] = target: TXK (Homo sapiens, UniProt P42681)
Summary of the method: as §1

[4] = target: CDK7 (Homo sapiens, UniProt P50613)
Summary of the method: as §1

[5] = target: INSR (Homo sapiens, UniProt P06213)
Summary of the method: as §1

[6] = target: CLK4 (Homo sapiens, UniProt Q9HAZ1)
Summary of the method: as §1

[7] = target: BRSK1 (Homo sapiens, UniProt Q8TDC3)
Summary of the method: as §1

[8] = target: STK38 (Homo sapiens, UniProt Q15208)
Summary of the method: as §1

[9] = target: PRKACB (Homo sapiens, UniProt P22694)
Summary of the method: as §1

[10] = target: NEK3 (Homo sapiens, UniProt P51956)
Summary of the method: as §1

[11] = target: CDKL2 (Homo sapiens, UniProt Q92772)
Summary of the method: as §1

[12] = target: HIPK4 (Homo sapiens, UniProt Q8NE63)
Summary of the method: as §1

[13] = target: CDK6 (Homo sapiens, UniProt Q00534)
Summary of the method: as §1

[14] = target: ULK3 (Homo sapiens, UniProt Q6PHR2)
Summary of the method: as §1

[15] = target: PRKACA (Homo sapiens, UniProt P17612)
Summary of the method: as §1

[16] = target: CDK20 (Homo sapiens, UniProt Q8IZL9)
Summary of the method: as §1

[17] = target: STK16 (Homo sapiens, UniProt O75716)
Summary of the method: as §1

[18] = target: RIPK1 (Homo sapiens, UniProt Q13546)
Summary of the method: as §1

CDK6, sequence (Q00534 whole entry): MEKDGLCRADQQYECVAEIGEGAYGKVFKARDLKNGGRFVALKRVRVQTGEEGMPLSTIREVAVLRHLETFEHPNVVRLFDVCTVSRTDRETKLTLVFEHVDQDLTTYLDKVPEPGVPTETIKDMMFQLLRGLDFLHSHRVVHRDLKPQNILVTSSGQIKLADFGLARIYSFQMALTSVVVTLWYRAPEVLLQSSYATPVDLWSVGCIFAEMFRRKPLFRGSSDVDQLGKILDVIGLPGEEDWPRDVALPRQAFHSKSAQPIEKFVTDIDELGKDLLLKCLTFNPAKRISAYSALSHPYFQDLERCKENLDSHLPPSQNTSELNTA
FYN, sequence (P06241 whole entry, the tested form may be a part): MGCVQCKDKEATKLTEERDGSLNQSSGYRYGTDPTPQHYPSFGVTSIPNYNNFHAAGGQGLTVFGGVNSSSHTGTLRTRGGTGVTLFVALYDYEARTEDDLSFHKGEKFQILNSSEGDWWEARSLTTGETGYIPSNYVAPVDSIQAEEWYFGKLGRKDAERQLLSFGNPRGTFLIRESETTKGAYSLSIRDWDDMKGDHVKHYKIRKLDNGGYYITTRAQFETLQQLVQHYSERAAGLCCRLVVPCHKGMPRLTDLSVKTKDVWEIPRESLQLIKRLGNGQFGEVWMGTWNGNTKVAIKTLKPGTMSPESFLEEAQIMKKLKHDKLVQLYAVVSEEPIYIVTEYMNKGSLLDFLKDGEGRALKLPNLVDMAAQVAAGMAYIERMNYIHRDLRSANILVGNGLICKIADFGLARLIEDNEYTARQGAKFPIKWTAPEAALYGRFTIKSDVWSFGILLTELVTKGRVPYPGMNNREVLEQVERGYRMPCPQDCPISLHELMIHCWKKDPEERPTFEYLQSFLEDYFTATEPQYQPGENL
ULK3, sequence (Q6PHR2 whole entry): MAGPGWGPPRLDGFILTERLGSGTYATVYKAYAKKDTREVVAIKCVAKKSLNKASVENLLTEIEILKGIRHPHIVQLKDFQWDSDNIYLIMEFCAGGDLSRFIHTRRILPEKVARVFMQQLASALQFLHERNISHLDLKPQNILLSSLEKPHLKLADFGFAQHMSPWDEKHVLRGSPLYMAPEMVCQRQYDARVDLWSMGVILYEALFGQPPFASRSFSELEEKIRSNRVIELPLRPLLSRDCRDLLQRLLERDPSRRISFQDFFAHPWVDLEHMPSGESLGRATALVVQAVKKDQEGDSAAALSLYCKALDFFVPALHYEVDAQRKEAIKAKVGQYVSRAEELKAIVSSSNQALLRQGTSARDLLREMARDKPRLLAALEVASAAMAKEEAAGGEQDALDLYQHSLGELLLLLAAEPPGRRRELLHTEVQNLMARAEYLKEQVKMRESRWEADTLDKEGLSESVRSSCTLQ
CDK20, sequence (Q8IZL9 whole entry): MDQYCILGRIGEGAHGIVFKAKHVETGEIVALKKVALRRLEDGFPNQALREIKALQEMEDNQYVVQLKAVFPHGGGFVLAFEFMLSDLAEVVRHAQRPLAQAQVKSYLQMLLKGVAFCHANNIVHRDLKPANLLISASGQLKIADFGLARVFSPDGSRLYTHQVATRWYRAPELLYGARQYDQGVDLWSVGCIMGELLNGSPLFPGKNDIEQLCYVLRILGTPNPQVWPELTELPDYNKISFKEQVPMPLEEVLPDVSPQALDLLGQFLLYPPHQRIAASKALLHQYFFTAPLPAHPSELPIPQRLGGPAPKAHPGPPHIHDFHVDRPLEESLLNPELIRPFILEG
NEK3, sequence (P51956 whole entry): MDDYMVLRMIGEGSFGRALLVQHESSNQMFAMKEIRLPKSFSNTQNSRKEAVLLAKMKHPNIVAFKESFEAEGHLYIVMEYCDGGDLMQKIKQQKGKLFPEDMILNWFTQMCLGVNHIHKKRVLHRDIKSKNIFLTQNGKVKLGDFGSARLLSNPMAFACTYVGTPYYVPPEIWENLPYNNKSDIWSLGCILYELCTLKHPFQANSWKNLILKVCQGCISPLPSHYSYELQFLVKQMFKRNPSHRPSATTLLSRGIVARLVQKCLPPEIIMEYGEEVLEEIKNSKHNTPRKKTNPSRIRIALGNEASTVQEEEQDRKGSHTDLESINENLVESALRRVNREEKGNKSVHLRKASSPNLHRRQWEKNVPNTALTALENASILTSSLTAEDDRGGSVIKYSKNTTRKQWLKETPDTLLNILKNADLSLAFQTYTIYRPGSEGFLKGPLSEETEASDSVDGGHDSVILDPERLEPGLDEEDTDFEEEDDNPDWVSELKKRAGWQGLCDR
CLK4, sequence (Q9HAZ1 whole entry): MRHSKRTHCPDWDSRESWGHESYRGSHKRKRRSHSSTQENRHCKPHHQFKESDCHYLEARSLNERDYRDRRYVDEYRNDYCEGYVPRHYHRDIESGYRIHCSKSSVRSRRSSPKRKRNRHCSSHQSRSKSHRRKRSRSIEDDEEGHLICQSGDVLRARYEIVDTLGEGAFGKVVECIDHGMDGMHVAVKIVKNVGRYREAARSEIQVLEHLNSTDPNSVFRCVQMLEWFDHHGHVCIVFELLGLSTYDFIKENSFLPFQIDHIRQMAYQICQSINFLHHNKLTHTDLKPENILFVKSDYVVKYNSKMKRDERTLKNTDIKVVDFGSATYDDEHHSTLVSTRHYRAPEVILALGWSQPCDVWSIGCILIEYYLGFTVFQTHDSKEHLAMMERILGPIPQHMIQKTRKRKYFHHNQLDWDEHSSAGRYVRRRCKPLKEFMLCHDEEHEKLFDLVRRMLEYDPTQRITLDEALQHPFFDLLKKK
RIPK1, sequence (Q13546 whole entry): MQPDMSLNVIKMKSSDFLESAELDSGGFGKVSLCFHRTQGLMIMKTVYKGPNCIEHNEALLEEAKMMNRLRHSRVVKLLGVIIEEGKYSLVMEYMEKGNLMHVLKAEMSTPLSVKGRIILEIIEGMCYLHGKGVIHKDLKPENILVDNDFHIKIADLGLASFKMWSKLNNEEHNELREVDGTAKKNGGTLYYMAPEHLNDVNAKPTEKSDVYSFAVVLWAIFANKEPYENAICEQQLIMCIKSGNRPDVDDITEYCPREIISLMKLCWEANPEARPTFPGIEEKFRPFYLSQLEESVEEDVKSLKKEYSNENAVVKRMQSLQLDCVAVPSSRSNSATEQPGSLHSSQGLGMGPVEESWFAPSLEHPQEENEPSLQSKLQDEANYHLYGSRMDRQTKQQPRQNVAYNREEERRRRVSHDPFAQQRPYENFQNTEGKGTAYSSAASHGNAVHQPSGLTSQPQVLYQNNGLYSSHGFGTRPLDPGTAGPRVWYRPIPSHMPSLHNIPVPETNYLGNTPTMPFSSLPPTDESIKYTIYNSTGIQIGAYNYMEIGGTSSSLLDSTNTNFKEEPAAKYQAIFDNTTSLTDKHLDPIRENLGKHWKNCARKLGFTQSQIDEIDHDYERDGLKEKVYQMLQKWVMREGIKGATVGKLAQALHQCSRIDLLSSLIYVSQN
STK38, sequence (Q15208 whole entry): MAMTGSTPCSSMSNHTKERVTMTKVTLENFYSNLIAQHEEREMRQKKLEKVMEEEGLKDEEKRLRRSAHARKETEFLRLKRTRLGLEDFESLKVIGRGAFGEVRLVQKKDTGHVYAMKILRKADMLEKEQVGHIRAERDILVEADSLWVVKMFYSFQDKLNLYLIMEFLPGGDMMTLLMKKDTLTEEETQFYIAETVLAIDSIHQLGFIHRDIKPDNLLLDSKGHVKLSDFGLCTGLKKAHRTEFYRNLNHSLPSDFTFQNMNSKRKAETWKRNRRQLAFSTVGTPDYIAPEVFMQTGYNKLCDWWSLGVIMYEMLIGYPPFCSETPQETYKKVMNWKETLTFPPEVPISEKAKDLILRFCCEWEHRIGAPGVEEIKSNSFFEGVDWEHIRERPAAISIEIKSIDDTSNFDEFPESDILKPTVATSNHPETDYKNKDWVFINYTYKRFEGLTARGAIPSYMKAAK
BRSK1, sequence (Q8TDC3 whole entry): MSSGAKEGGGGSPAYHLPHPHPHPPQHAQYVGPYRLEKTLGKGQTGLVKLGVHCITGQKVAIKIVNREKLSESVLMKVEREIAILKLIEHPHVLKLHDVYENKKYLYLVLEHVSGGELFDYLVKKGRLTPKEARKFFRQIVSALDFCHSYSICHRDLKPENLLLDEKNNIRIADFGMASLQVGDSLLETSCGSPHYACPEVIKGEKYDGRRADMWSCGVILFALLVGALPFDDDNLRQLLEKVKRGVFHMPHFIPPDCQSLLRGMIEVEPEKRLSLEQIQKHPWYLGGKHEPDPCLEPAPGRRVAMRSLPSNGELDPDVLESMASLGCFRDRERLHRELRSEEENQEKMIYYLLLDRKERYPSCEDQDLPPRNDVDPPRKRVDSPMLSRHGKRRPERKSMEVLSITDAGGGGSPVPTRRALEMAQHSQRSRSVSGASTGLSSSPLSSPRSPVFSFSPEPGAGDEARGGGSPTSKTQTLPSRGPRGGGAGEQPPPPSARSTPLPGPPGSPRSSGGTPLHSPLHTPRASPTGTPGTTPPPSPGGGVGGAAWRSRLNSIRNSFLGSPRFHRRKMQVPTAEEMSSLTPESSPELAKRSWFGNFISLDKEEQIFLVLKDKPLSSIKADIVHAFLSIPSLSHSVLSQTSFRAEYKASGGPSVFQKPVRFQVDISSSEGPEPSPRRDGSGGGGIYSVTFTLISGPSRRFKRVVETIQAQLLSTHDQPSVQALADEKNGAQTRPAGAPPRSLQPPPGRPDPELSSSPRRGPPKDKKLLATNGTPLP
CDK7, sequence (P50613 whole entry): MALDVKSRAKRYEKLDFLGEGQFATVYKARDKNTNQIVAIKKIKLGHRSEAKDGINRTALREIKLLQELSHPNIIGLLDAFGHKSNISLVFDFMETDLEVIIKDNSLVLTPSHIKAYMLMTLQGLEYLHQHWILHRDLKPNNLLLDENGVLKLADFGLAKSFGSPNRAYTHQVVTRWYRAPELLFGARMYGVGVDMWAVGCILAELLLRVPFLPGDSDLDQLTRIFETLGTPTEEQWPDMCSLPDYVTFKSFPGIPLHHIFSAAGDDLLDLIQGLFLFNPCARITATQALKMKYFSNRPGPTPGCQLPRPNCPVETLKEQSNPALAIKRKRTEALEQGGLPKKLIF

C[C@@H](Oc1cc(-c2cnn(C3CCNCC3)c2)cnc1N)c1c(Cl)ccc(F)c1Cl [crizotinib]
inhibition at 1 µM [1]: -2% | inhibition at 1 µM [2]: 0% | inhibition at 1 µM [3]: 18% | inhibition at 1 µM [4]: 32% | inhibition at 1 µM [5]: 20% | inhibition at 1 µM [6]: -19% | inhibition at 1 µM [7]: -1% | inhibition at 1 µM [8]: 1% | inhibition at 1 µM [9]: 5% | inhibition at 1 µM [10]: -2% | inhibition at 1 µM [11]: 21% | inhibition at 1 µM [12]: -9% | inhibition at 1 µM [13]: 0% | inhibition at 1 µM [14]: 2% | inhibition at 1 µM [15]: -1% | inhibition at 1 µM [16]: -11% | inhibition at 1 µM [17]: -13% | inhibition at 1 µM [18]: 23%
